{"source": "paper PMC8192908", "about": "(Scientific Reports, 2021)", "key": {"[1]": {"test_system": "tyrosine phosphorylated sperm proteins", "assay": "Tyrosine phosphorylation of sperm proteins by immunofluorescence", "type": "cell-based, human", "details": "PTX 1 mM, PTXm-1 0.25 mM; control 16%", "protocol": "The cells were incubated with blocking solution (PBS containing 1% BSA and 0.1% Tween-20) for 1 h followed by incubation at 4 °C overnight with anti phospho-tyrosine antibody (1:300 dilution, Clone PY20, Merck Millipore, Cat. No. 05–947). […] No. S6MQT0101), cells were counterstained with DAPI and observed under fluorescence microscope (1000x, oil immersion). The number of tyrosine phosphoprotein positive spermatozoa were counted in total of 500 spermatozoa and the result was expressed in percentage spermatozoa."}, "[2]": {"test_system": "Oct4, Sox2, Nanog, Cdx2 in blastocysts", "assay": "mRNA expression of pluripotency and trophectoderm genes in blastocysts", "type": "cell-based, Swiss albino mice", "details": "PTX 1 mM, PTXm-1 0.25 mM", "protocol": "RNA was extracted from blastocyst stage embryos (30 per group) using an RNA isolation aqueous micro kit (Catalogue No. AM1931; Ambion, Foster City, CA, USA) as explained. Briefly, embryos were lysed using lysis buffer to release total RNA and was eluted using elution buffer. RNA obtained was treated with DNase for 20 min at 37 °C and stored at − 80 °C. cDNA was synthesized using a Superscript first strand cDNA synthesis kit for reverse transcription polymerase chain reaction (Catalogue No. E6300; NewEngland Biolabs, Ipswich, MA, USA).\nQuantitative PCR for relative expression of Sox2, Nanog, and Oct4 mRNA was done using StepOne real-time PCR system (Applied Biosystems, California, USA) with TaqMan® Gene Expression Assay probes and TaqMan® Fast Advanced MixThe relative mRNA expression of Cdx2 was also estimated using real-time PCR system with SYBER Green chemistry (TaKaRa, Shiga, Japan, Cat. No. RR420A). All the data were normalized with GAPDH housekeeping gene as an internal control. The relative expression levels were calculated in terms of fold change. The IDs for TaqMan® Gene Expression Assay probes used in this study and the specific primers used for Cdx2 gene and GAPDH housekeeping gene are given in Supplementary Table S1."}, "[3]": {"test_system": "spermatozoa, oocytes and embryos of Swiss albino mice", "assay": "In vitro fertilization and pre-implantation embryo development", "type": "cell-based", "details": "for Total cell number (Mean ± SE): blastocysts, PTX 1 mM, PTXm-1 0.25 mM, control 92.78 ± 6.58; for Hatching rate at 120 h post insemination / Blastocyst rate at 120 h post insemination / Fertilization rate at 16 h post insemination: sperm treated with PTX 1 mM or PTXm-1 0.25 mM; for Hatching rate at 120 h post insemination: control 64.56; for Blastocyst rate at 120 h post insemination: control 81.67; for Fertilization rate at 16 h post insemination: control 83.56", "protocol": "The adult female Swiss albino mice were stimulated using 5 IU of pregnant mare serum gonadotropin (PMSG) and 10 IU of human chorionic gonadotropin (hCG) at an interval of 48 h. At 13 h post hCG administration, the cumulus oocyte complexes (COCs) were collected by teasing the oviduct into M2 medium. To assess the effect of PTXm-1 on fertilization outcome and the early embryo development, Swiss albino mice were used. The male mice (6 to 8 weeks, N = 6 per trial, total 3 trials) were humanely sacrificed by cervical dislocation and cauda was dissected out. The IVF was performed as described in our earlier report. Briefly, the cauda was teased in a Petri dish containing EBSS (with 0.1% BSA) culture media and incubated at 37 °C, 5% CO2 incubator. After 2 h of incubation, the spermatozoa were collected and divided equally into 4 parts as C, VC, […] and PTXm-1 groups. The sperm suspension was centrifuged at 250 g for 8 min and the supernatant was discarded. […] The overlay containing motile sperm fraction of were collected carefully without disturbing the pellet, and were used for preparation of insemination droplets (80 µL) which was covered with paraffin oil (Cat. No. 61822605001730, Merck, Germany). The female mice were sacrificed humanely by cervical dislocation (N = 12 per trial, total 3 trials). […] […] Blastocyst rate, hatching rate and, DNA damage and total cell number was assessed in blastocysts."}, "[4]": {"test_system": "spermatozoa from normozoospermic samples", "assay": "Calcium ionophore-induced acrosome reaction assay", "type": "cell-based, human", "details": "PTX 1 mM, PTXm-1 0.25 mM", "protocol": "The ionophore-induced acrosome reaction was assessed using a method described earlier. The swim-up fraction collected (at 1 and 2 h after incubation) from various groups were incubated with calcium ionophore A23187 (Sigma-Aldrich, Cat. No. C7522) at 37 °C for 1 h (N = 28, normozoospermic). Sperm suspension was washed with phosphate buffered solution (PBS), centrifuged at 300 g for 10 min and fixed on a coverslip using methanol. The spermatozoa were stained with Fluorescein isothiocyanate-conjugated Pisum sativum agglutinin (FITC-PSA, Sigma-Aldrich, Cat. No. L0770), washed with Milli-Q water, counterstained with propidium iodide (PI) and then mounted on slide using mounting media. Percentage of acrosome reacted spermatozoa (without green florescence in acrosome region) were counted in 500 spermatozoa by observing under fluorescence microscope (400x)."}, "mouse bone marrow cells": {"test_system": "mouse bone marrow cells", "details": "cited from earlier work"}, "testicular spermatozoa": {"test_system": "testicular spermatozoa", "assay": "Twitching motility of testicular spermatozoa", "type": "cell-based, human", "details": "PTX 1 mM, PTXm-1 0.25 mM; for spermatozoa with twitching motility vs control: increased incubation time (1 h)", "excerpt": "Testicular tissue from men diagnosed with prostate cancer and admitted for orchiectomy (N = 8, age 74.33 ± 5.61 years) were collected from Urology operation theater in sterile PBS. The testis was transferred to Petri dish, washed in phosphate buffered solution (PBS) and cut into small pieces. Seminiferous tubule contents were released into the Petri dish containing EBSS medium with 0.1% BSA by milking the seminiferous tubules with the help of with the help of sterile glass slides. The cell suspension was screened for the presence of testicular spermatozoa under inverted microscope (200 × magnification). The cell suspension was divided into four equal parts- (a) Control (C): […] (b) Vehicle control (VC): […] The testicular sperm suspension was processed by discontinuous gradient technique using 40% and 80% density solutions ([…], Germany). The discontinuous gradient column was prepared by adding 1 mL of 80% and 40% gradient solutions sequentially in a sterile test tube. The testicular cell suspension was carefully added above the gradients and centrifuged at 500 g for 20 min. The pellet obtained after centrifugation was further washed by centrifuging at 400 g for 8 min twice."}, "[5]": {"details": "15 min after incubation, control 5.06 ± 0.98%"}}, "note": "Several values for one entry are separate records, joined by “and”; a condition that tells them apart may be missing. Equal entries are not always repeated. Where two headings read alike, the source gives them in different places. Marks after values point to notes of the source that are not given here.", "data": [{"molecule": "CC(=O)CCCCn1c(=O)c2c(ncn2C)n(C)c1=O", "note": "[PTX, pentoxifylline]", "values": [{"measurement": "spermatozoa with tyrosine phosphorylated proteins", "setting": "[1]", "result": 24.75, "unit": "%"}, {"measurement": "expression of pluripotency genes in blastocysts", "setting": "[2]", "result": "did not differ between the groups"}, {"measurement": "Total cell number (Mean ± SE)", "setting": "[3]", "result": "88.91 ± 6.56^b,c"}, {"measurement": "Hatching rate at 120 h post insemination", "setting": "[3]", "result": "67.56^a,c %"}, {"measurement": "Blastocyst rate at 120 h post insemination", "setting": "[3]", "result": "86.34^a,c %"}, {"measurement": "Fertilization rate at 16 h post insemination", "setting": "[3]", "result": "95.64% and 95.64^b,c %"}, {"measurement": "acrosome reacted spermatozoa", "setting": "[4]; 1 h, control 15.21%", "result": 24.25, "unit": "%"}, {"measurement": "acrosome reacted spermatozoa", "setting": "[4]; 2 h", "result": 34.28, "unit": "%"}, {"measurement": "cytotoxic effect on mouse bone marrow cells", "setting": "mouse bone marrow cells", "result": "do not have any cytotoxic effect"}, {"measurement": "spermatozoa with twitching motility", "setting": "testicular spermatozoa; [5]", "result": "11.78 ± 1.36", "unit": "%"}, {"measurement": "spermatozoa with twitching motility", "setting": "testicular spermatozoa; 24 h incubation", "result": "7.90 ± 1.06", "unit": "%"}, {"measurement": "spermatozoa with twitching motility vs control", "setting": "testicular spermatozoa", "result": "significantly higher (P < 0.001)"}]}, {"molecule": "COc1ccc2cc(/C=C/C(=O)CCCCn3c(=O)c4c(ncn4C)n(C)c3=O)ccc2c1", "note": "[PTXm-1]", "values": [{"measurement": "spermatozoa with tyrosine phosphorylated proteins", "setting": "[1]", "result": 23.25, "unit": "%"}, {"measurement": "expression of pluripotency genes in blastocysts", "setting": "[2]", "result": "did not differ between the groups"}, {"measurement": "Total cell number (Mean ± SE)", "setting": "[3]", "result": "93.23 ± 8.56^e"}, {"measurement": "Hatching rate at 120 h post insemination", "setting": "[3]", "result": "66.89^b,d %"}, {"measurement": "Blastocyst rate at 120 h post insemination", "setting": "[3]", "result": "88.45^b,d %"}, {"measurement": "Fertilization rate at 16 h post insemination", "setting": "[3]", "result": "96.25% and 96.25^b,c %"}, {"measurement": "acrosome reacted spermatozoa", "setting": "[4]; 1 h, control 15.21%", "result": 15.78, "unit": "%"}, {"measurement": "acrosome reacted spermatozoa", "setting": "[4]; 2 h", "result": 25.17, "unit": "%"}, {"measurement": "cytotoxic effect on mouse bone marrow cells", "setting": "mouse bone marrow cells; mouse, in vivo", "result": "do not have any cytotoxic effect"}, {"measurement": "spermatozoa with twitching motility", "setting": "testicular spermatozoa; [5]", "result": "9.95 ± 0.79", "unit": "%"}, {"measurement": "spermatozoa with twitching motility", "setting": "testicular spermatozoa; 24 h incubation", "result": "13.39 ± 0.65", "unit": "%"}, {"measurement": "spermatozoa with twitching motility vs control", "setting": "testicular spermatozoa", "result": "significantly higher (P < 0.001)"}]}]}
